Key:
[1] = Cmax in C57BL/6 mouse plasma at 5 mg/kg, po; assay type: ADME, organism-based; set-up: dose 5 mg/kg, route oral
[2] = Protein binding in mouse plasma; assay type: ADME, cell-free; conditions: read-out: PPB (converted)
[3] = target: T1, Toll-like receptor 8 (Homo sapiens) (UniProt Q9NR97); assay: Agonist activity at human TLR8 expressed in HEK293 cells after 6 hrs by NFkappaB-luciferase reporter gene assay; assay type: cell-based
T1 sequence (whole entry): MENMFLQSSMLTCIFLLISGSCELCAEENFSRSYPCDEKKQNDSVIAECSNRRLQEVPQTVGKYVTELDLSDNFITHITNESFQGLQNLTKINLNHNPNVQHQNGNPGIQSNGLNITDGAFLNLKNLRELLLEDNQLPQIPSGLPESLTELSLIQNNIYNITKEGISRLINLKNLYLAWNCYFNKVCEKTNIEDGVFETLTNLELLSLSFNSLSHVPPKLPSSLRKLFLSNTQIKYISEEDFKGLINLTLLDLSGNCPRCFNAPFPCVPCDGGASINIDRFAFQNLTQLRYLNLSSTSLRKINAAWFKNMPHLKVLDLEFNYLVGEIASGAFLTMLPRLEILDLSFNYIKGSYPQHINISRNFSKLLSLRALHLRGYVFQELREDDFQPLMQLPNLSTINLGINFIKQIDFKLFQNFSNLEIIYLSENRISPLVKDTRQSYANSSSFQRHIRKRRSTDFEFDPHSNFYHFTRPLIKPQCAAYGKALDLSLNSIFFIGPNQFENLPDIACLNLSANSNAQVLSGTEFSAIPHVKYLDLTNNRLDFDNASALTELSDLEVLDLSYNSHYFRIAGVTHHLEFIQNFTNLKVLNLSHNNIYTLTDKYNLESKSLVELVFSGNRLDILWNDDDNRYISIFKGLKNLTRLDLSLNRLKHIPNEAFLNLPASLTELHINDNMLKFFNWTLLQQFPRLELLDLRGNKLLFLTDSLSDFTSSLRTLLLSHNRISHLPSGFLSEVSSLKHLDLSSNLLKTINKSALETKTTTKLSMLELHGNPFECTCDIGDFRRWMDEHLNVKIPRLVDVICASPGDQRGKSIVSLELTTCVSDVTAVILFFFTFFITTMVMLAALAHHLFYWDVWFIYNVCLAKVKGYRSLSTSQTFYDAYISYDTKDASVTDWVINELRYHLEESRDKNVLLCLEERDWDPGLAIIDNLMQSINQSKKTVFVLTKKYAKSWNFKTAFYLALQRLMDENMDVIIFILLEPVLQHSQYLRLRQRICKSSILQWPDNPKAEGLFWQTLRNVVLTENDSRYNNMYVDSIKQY

Cytochrome P450 2C19 = Cytochrome P450 2C19 (Homo sapiens, UniProt P33261); assay: Inhibition of CYP2C19 (unknown origin); assay type: ADME
Chain of Cytochrome P450 2C19 (P33261 whole entry): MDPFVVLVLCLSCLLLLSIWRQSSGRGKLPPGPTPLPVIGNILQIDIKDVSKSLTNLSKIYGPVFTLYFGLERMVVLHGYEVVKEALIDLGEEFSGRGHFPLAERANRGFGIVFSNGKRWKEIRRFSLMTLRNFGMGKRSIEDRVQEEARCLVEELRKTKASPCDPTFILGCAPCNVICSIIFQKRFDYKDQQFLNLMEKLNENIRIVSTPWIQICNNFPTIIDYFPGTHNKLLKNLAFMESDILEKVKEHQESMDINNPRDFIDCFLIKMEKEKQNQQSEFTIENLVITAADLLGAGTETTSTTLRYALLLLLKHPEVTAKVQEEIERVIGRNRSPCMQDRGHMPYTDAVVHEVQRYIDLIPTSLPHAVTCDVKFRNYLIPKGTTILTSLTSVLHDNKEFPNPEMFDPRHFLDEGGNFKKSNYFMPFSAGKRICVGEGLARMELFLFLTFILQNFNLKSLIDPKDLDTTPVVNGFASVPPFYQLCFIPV

[4] = AUC (0 to last) in C57BL/6 mouse liver at 5 mg/kg, po; assay type: ADME, organism-based; conditions: in vivo
Cytochrome P450 2C8 = target: T2, Cytochrome P450 2C8 (Homo sapiens, UniProt P10632); assay: Inhibition of CYP2C8 (unknown origin); assay type: ADME
T2 sequence (P10632 whole entry): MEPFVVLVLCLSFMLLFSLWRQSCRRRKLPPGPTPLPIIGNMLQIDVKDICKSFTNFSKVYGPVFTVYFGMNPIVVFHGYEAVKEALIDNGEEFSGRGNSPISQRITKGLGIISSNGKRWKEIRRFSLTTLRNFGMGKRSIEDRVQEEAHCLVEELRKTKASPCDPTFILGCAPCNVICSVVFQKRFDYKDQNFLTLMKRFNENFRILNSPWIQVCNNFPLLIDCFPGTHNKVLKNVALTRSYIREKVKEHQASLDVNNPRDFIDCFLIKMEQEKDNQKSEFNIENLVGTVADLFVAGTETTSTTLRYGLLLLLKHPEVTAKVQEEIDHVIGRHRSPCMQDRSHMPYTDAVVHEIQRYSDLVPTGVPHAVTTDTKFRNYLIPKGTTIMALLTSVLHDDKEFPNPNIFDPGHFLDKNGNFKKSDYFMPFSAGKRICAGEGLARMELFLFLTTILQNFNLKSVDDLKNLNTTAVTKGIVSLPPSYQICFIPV

Cytochrome P450 1A2 = target: T3, Cytochrome P450 1A2 (Homo sapiens, UniProt P05177); assay: Inhibition of CYP1A2 (unknown origin); assay type: ADME
T3 sequence (P05177 whole entry): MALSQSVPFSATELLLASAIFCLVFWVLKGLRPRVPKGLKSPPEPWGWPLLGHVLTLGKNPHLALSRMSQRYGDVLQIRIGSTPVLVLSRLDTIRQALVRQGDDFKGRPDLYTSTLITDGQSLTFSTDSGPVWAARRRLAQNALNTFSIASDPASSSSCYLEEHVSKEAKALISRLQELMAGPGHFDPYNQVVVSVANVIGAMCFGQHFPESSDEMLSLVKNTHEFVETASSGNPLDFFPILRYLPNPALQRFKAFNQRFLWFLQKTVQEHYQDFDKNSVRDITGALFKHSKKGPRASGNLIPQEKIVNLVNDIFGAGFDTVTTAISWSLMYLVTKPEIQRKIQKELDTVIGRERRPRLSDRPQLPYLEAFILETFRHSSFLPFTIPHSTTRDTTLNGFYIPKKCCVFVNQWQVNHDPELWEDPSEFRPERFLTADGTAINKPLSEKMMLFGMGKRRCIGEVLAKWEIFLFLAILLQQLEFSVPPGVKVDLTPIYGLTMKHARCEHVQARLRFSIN

[5] = target: Voltage-gated inwardly rectifying potassium channel KCNH2 (Homo sapiens, UniProt Q12809); assay: Displacement of 3H-dofetilide from human ERG
Chain of Voltage-gated inwardly rectifying potassium channel KCNH2 (Q12809 whole entry): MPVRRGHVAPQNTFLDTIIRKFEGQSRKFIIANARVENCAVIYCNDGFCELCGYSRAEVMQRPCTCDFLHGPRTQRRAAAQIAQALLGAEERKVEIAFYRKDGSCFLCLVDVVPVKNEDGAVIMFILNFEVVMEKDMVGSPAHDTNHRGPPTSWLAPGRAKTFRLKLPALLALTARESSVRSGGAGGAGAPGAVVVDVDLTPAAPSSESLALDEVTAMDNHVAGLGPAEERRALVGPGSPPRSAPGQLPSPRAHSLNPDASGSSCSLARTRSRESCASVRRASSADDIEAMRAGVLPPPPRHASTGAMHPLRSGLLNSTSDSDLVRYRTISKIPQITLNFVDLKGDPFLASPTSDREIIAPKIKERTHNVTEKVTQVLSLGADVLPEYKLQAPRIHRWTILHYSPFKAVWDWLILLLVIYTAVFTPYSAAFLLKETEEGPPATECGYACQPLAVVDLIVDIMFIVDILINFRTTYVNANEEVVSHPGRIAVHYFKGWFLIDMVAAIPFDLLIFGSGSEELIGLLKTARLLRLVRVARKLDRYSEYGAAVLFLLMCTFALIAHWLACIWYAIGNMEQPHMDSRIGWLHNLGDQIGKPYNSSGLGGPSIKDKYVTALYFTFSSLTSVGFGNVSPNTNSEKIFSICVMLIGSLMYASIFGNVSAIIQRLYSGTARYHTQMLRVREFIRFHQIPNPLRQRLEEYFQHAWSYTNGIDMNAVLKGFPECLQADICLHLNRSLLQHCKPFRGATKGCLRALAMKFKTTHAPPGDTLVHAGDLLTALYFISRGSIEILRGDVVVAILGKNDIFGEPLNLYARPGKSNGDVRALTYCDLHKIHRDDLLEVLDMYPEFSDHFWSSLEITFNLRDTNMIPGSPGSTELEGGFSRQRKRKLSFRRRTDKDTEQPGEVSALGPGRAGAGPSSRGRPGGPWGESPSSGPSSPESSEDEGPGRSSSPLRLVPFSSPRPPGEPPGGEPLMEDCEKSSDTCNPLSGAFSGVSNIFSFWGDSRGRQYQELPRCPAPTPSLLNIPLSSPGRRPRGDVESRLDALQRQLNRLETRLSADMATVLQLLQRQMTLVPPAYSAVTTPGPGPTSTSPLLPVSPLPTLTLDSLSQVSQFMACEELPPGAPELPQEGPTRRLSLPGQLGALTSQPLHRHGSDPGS

CCC[C@@H](CCO)Nc1nc(N)nc2c1CN(C(=O)c1csc(C)n1)CC2
Cmax [1]: 29 ng/mL | fraction unbound [2]: 0.7 | MEC [3]: 3.4 µM | IC50 (Cytochrome P450 2C19): > 10 µM | AUClast [4]: 1410 ng·h/g | IC50 (Cytochrome P450 2C8): > 10 µM | IC50 (Cytochrome P450 1A2): > 10 µM | IC50 [5]: 22 µM

Source: ChEMBL document CHEMBL4265889, “Design and synthesis of tetrahydropyridopyrimidine based Toll-Like Receptor (TLR) 7/8 dual agonists” (Bioorg Med Chem Lett, 2018)
